Here are results for two substances from patent US20010034330A1, “Innate immunity-stimulating compositions of CpG and saponin and methods thereof” (priority 1998, published 2001).

Test [1] deals with Listeria monocytogenes strain 10403s. Nature of the test: Listeria monocytogenes challenge model (spleen colony counts). The test is classed as in vivo, Balb/c mice. The following applies: Example 5, FIG. 5; given day 0, i.p. challenge with 10^5 colonies day 3, spleens 96 hours after challenge; versus saline, p<0.05 for the two lowest groups. On the procedure:
Balb/mice (5 per group, female, 8-10 weeks of age) were administered the following formulations on day 0: Group 1: saline, subcutaneous route. Group 2: 10 ug QS-21 and 10 ug of CpG sequence 1826, subcutaneous route. Group 3: 10 ug QS-21, subcutaneous route. Group 4: 10 ug CpG sequence 1826, subcutaneous route. Group 5: 0.5 ug recombinant murine IL-12, intraperitoneal route. A total volume of 0.2 ml was administered. On day 3, mice were challenged by the intraperitoneal route with 10^5 colonies of Listeria monocytogenes strain 10403s. Spleens were removed at 96 hours after challenge, homogenized, and then cultured in serial 10-fold dilutions overnight on agar plates. Listeria monocytogenes colonies were counted, the number of organisms per spleen determined, and then the geometric mean and standard error were determined for each group. A two-tailed, paired student's t-test of the log10 colonies/spleen was used to show statistical significance.

The next test concerns YAC-1 cells. Nature of the test: Natural killer cell activity: 51Cr release lysis of YAC-1 target cells by splenocytes of treated mice. It is filed as in vivo, Balb/c mice. The following applies: for NK cell response (lysis of YAC-1 cells): Example 1, FIG. 1, 10 ug each, subcutaneous, days 1 and 2; for NK cell response (lysis of YAC-1 cells) / NK activity, dose response: splenocytes day 3; for NK cell activity compared with QS-7 at an equivalent dose / NK activity, dose response: Example 3, FIG. 3, 3, 10, 30 ug s.c. day 1 and day 2. On the procedure:
Assessment of natural killer cell activity was carried out by an adaptation of a published method (Hashimoto et al., J. Immunol. 163: 583 (1999)). Balb/c mice (4 per group, female, 8-10 weeks of age) were administered one of five different candidate compositions at days 1 and 2. The compositions evaluated were (1) saline (negative control), (2) 10 ug QS-21, (3) 10 ug CpG (sequence 1826), (4) 0.5 ug murine IL-12 (positive control for NK cell activation), and (5) a combination of 10 ug QS-21 and 10 ug CpG in 0.2 ml saline. All test compositions were administered subcutaneously except for murine IL-12, which was administered intraperitoneally. Splenocytes were removed from the mice at day 3 for use as effector cells in the natural killer cell assay. Such cells were immediately used in a standard ^51Cr release lysis assay. YAC-1 cells (loaded with ^51Cr) were used as target cells. The lysis of this NK cell-sensitive line is indicative of NK cell activation in the splenocyte population.
The time dependence of the administration of CpG/QS-21 on natural killer cell activation was investigated. Balb/c mice (5 per group, female, 8-10 weeks of age) were administered a mixture of 10 ug QS-21 and 10 ug CpG sequence 1826 in a total volume of 0.2 ml by subcutaneous route seven days before (−7d), three days before (−3d), two days before (−2d), and one day before (−1d) assay of natural killer cell activity. Splenocytes were removed from the mice at day 0 for use as effector cells in the natural killer cell assay. YAC-1 cells (loaded with ^51Cr) were used as target cells. Natural killer cell lysis was apparent if the formulation of QS-21/CpG was administered one, two, or three days prior to the assay, but not if the formulation was administered seven days prior to the assay (FIG. 2). This confirms the transient nature of the natural killer cell activity.
Balb/c mice (5 per group, female, 8-10 weeks of age) were administered individually QS-7, QS-21, or CpG sequence 1826 at three different dose levels (3, 10, 30 ug) to determine a dose response curve for these individual compounds. The compositions evaluated were (1) saline (negative control), (2) 3 ug QS-21, (3) 10 ug QS-21, (4) 30 ug QS-21, (5) 3 ug QS-7(6) 10 ug QS-7, (7) 30 ug QS-7, (8) 3 ug sequence CpG 1826, (9) 10 ug CpG sequence 1826, and (10) 30 ug CpG sequence 1826. All test compositions were administered subcutaneously at day 1 and day 2. Splenocytes were removed from the mice at day 3 for use as effector cells in the natural killer cell assay. YAC-1 cells (loaded with ^51Cr) were used as target cells.
This experiment evaluated the natural killer cell stimulating activity induced by various formulations: (1) QS-21 (10 ug), (2) QS-7 (10 ug), (3) CpG sequence 1826 (10 ug), (4) CpG sequence 2006 (10 ug), (5) QS-21 (10 ug)+CpG sequence 1826 (10 ug), (6) QS-21 (10 ug)+CpG 2006 (10 ug), (7) QS-7 (10 ug)+CpG sequence 1826 ( […]), (8) QS-7 (10 ug) +CpG sequence 2006 (10 ug), (9) QS-7 (10 ug) and QS-21 (10 ug) and (10) saline. Balb/c mice (5 per group, female, 8-10 weeks of age) were administered the above formulations by subcutaneous route on day 1 and day 2. Splenocytes were removed from the mice at day 3 for use as effector cells in the natural killer cell assay. YAC-1 cells (loaded with ^51Cr) were used as target cells.

For the substance QS-21, in test [1], the “Listeria monocytogenes colony count in spleen” value is “lowest colony counts”. Further, in the test on YAC-1 cells, the “NK cell response (lysis of YAC-1 cells)” value was “higher than CpG and that was nearly equivalent to the positive control, murine IL-12”; the “NK cell activity compared with QS-7 at an equivalent dose” value was “higher than that induced by QS-7”; the “NK activity, dose response” value is recorded as “enhance NK activity in a dose dependent fashion”.
Turning to “TCCATGACGTTCCTGACGTT [CpG sequence 1826]”, in the test with YAC-1 cells, the “NK cell response (lysis of YAC-1 cells)” value is reported as “slightly enhanced the NK cell activity”; the “NK cell activity compared with QS-7 at an equivalent dose” value is given as “higher than that induced by QS-7”; the “NK activity, dose response” value was “enhance NK activity in a dose dependent fashion”.
